The source of these data is BindingDB's records for doi:10.1021/acs.jmedchem.5b01538 (Glaxosmithkline, 2016).

pIC50: −log10 of the molar value.

This assay deals with T1, Lysine-specific demethylase 4C (Homo sapiens, UniProt Q9H3R0).
T1 sequence (Q9H3R0 whole entry): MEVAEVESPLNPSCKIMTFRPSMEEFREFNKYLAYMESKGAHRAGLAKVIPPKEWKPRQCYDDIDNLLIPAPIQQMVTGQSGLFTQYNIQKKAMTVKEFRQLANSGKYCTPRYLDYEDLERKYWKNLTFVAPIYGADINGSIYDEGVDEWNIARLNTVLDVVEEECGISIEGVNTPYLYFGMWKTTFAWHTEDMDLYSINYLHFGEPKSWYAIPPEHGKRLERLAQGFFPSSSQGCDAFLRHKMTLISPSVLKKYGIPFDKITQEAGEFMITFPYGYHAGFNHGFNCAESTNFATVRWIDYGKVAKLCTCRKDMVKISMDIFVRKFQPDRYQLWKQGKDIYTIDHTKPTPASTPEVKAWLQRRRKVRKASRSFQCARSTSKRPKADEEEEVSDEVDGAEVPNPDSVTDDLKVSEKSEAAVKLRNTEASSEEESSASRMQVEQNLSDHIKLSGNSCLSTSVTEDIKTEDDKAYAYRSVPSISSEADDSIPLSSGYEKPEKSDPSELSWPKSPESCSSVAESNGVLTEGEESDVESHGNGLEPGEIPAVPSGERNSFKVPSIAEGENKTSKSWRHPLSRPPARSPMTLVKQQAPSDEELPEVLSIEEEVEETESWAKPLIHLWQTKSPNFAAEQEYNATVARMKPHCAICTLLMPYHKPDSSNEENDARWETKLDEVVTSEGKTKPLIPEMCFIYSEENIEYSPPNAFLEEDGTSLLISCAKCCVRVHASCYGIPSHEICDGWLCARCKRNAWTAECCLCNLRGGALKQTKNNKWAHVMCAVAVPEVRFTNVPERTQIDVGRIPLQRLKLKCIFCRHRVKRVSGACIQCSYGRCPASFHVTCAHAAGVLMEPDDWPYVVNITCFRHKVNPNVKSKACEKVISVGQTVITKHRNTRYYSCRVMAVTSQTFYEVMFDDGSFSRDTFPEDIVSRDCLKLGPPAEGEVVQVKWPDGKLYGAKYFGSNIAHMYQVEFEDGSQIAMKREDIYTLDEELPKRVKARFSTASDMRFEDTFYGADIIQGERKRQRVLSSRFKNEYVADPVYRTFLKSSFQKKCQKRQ
Put plainly: Inhibition of N-terminal his-tagged full-length human KDM4C transfected in U2OS cells assessed as inhibition of H3K9Me3 demethylation for 24 hrs.

For orientation: pIC50 means the IC50 on a negative log10 scale, so that one unit is a factor of ten. For `O=c1[nH]c(Oc2ccc(Cl)c(O)c2)nc2cnccc12`, the pIC50 was 5.40. The result for `CC(C)c1ccc(Oc2nc3cnccc3c(=O)[nH]2)cn1` reads 5.40.
